These results are taken from ChEMBL document CHEMBL1149938, “New 7-aryl analogues of anthracyclines: Synthesis and cytotoxic activity of ()-7-(3,4,5-trimethoxyphenyl)-7-deoxyidarubicinone” (Bioorg Med Chem Lett, 1997).

Common to all, as to assay type: functional, cell-based
One assay has as its system HT-29. Briefly: Compound was evaluated for the cytotoxicity against HT-29 tumor cell line after 3 days of incubation. The conditions noted are these: Homo sapiens, HT-29, 72 h.
In another assay the test system is P388. Briefly: Compound was evaluated for the cytotoxicity against P-388 tumor cell line after 3 days of incubation. The conditions noted are these: Mus musculus, P388, 72 h.
The test system of a further assay is A549. Briefly: Compound was evaluated for the cytotoxicity against A-549 tumor cell line after 3 days of incubation. The conditions noted are these: Homo sapiens, A549, 72 h.
A further assay relates to SK-MEL-28. Briefly: Compound was evaluated for the cytotoxicity against MEL-28 tumor cell line after 3 days of incubation. The conditions noted are these: Homo sapiens, SK-MEL-28, 72 h.

Broadly, the pIC50 is the IC50 on a negative log10 scale, so that one unit is a factor of ten. Lower therefore signals a high IC50.

pIC50: −log10 of the molar value.

In the case of `C#C[C@@]1(O)C[C@H](c2cc(OC)c(OC)c(OC)c2)[C@@H]2C(=O)c3c(c(O)c4ccccc4c3O)C(=O)[C@@H]2C1`, the pIC50 with HT-29, in the assay on P388, in the assay with A549 and in the assay with SK-MEL-28 was 6.30 each time.
`C#C[C@]1(O)Cc2c(O)c3c(c(O)c2[C@@H](c2cc(OC)c(OC)c(OC)c2)C1)C(=O)c1ccccc1C3=O`: the pIC50 in the assay with HT-29, with P388, in the assay with A549 and in the assay on SK-MEL-28 was < 5.00 throughout.
For `COc1cc([C@H]2CC(=O)C[C@H]3C(=O)c4c(c(O)c5ccccc5c4O)C(=O)[C@@H]23)cc(OC)c1OC`, the pIC50 in the assay on HT-29, in the assay with P388, in the assay with A549 and in the assay on SK-MEL-28 was 5.30 throughout.
Turning to `COc1cc([C@H]2C[C@](O)(C(C)=O)Cc3c(O)c4c(c(O)c32)C(=O)c2ccccc2C4=O)cc(OC)c1OC`, the pIC50 in the assay on HT-29, in the assay on P388, with A549 and in the assay on SK-MEL-28 was < 5.00 each time.
With `COc1cc([C@H]2C[C@](O)(C(C)=O)C[C@H]3C(=O)c4c(c(O)c5ccccc5c4O)C(=O)[C@@H]23)cc(OC)c1OC`, the pIC50 with HT-29, with P388, in the assay on A549 and with SK-MEL-28 was 5.30 in each case.
Take `COc1cccc2c1C(=O)c1c(O)c3c(c(O)c1C2=O)C[C@@](O)(C(=O)CO)C[C@@H]3O[C@H]1C[C@H](N)[C@H](O)[C@H](C)O1` [DOXORUBICIN]: the pIC50 in the assay on HT-29, in the assay on P388, with A549 and in the assay on SK-MEL-28 was 7.70 each time.
